Test results reported in patent publication US9724355B2, “Fulvestrant compositions and methods of use” (SHIMODA BIOTECH (PTY) LTD, priority 2010, dated 2017).

Assay: Fulvestrant aqueous solubility in the presence and absence of cyclodextrins (excess drug, shaken 24 h, filtered, HPLC)
Assay type: physicochemical
Conditions: for True Fulvestrant Concentration: 22° C., 24 h; for Average Concentration / Quantity of Fulvestrant Diluted Run 1 / Quantity of Fulvestrant Diluted Run 2: diluted sample
Protocol: The HPLC system used for the chromatographic determination of fulvestrant consisted of a Waters 600E quaternary gradient pump, a Waters 717plus WISP auto-sampler and a Waters 2487 Dual A, Absorbance detector. Separation was performed using a Phenomenex Luna C18 column (250×4.6 mm; 5 urn) (Phenomenex, Torrance, Calif.) (supplied by Separations, South Africa) and a mobile phase consisting of 50% MeCN:22.5% ddH2O :27.5% MeOH. The mobile phase was degassed and filtered prior to use. […] Sample run times were 15 minutes. The UV detector wavelength was set to 280 nm.
(§1) 1 mL of each of the following aqueous solutions was prepared containing 0; 25; 50; 75 and 100 mg/mL ACD in ddHiO. Excess fulvestrant was added to each of these solutions and the samples were shaken for 24 hours on an orbital shaker at 200 rpm and at 22° C. room temperature. Excess fulvestrant was present in all samples at all times. After 24-hours, the samples were filtered through 0.45 μm syringe tip filters, diluted according to requirements and assayed by HPLC.
as §1, with “5; 7.5; 10” for “25; 50; 75”, “15” for “100”, “BCD” for “ACD”, “ddH2O.” for “ddHiO.”
as §1, with “0;” for “0; 25;”, “100; 150; 200; 250; 300; 350” for “75”, “400” for “100”, “MBCD” for “ACD”, “ddH2O.” for “ddHiO.”
as §1, with “0;” for “0; 25;”, “100; 150; 200; 250; 300; 350” for “75”, “400” for “100”, “HPBCD” for “ACD”, “ddH2O.” for “ddHiO.”
as §1, with “0;” for “0; 25;”, “100; 150; 200; 250; 300; 350” for “75”, “400” for “100”, “SBEBCD” for “ACD”, “ddH2O.” for “ddHiO.”
as §1, with “0;” for “0; 25;”, “100; 150;” for “75”, “200” for “100”, “GCD” for “ACD”, “ddHO.” for “ddHiO.”
as §1, with “0;” for “0; 25;”, “100; 150; 200; 250; 300; 350” for “75”, “400” for “100”, “HPGCD” for “ACD”, “ddH2O.” for “ddHiO.”

- True Fulvestrant Concentration (0 mg/mL ACD in ddH2O): <0.010 mg/mL
- Average Concentration (0 mg/mL ACD): <10.00 µg/mL
- Quantity of Fulvestrant Diluted Run 1 (0 mg/mL ACD): <10.000 µg/mL
- Quantity of Fulvestrant Diluted Run 2 (0 mg/mL ACD): <10.010 µg/mL
- True Fulvestrant Concentration (0 mg/mL BCD in ddH2O): <0.010 mg/mL
- Average Concentration (0 mg/mL BCD): <10.00 µg/mL
- Quantity of Fulvestrant Diluted Run 1 (0 mg/mL BCD): <10.000 µg/mL
- Quantity of Fulvestrant Diluted Run 2 (0 mg/mL BCD): <10.000 µg/mL
- True Fulvestrant Concentration (0 mg/mL GCD in ddH2O): <0.010 mg/mL
- Average Concentration (0 mg/mL GCD): <10.00 µg/mL
- Quantity of Fulvestrant Diluted Run 1 (0 mg/mL GCD): <10.000 µg/mL
- Quantity of Fulvestrant Diluted Run 2 (0 mg/mL GCD): <10.000 µg/mL
- True Fulvestrant Concentration (0 mg/mL HPBCD in ddH2O): <0.010 mg/mL
- Average Concentration (0 mg/mL HPBCD): <10.00 µg/mL
- Quantity of Fulvestrant Diluted Run 1 (0 mg/mL HPBCD): <10.00 µg/mL
- Quantity of Fulvestrant Diluted Run 2 (0 mg/mL HPBCD): <10.00 µg/mL
- True Fulvestrant Concentration (0 mg/mL HPGCD in ddH2O): <0.010 mg/mL
- Average Concentration (0 mg/mL HPGCD): <10.00 µg/mL
- Quantity of Fulvestrant Diluted Run 1 (0 mg/mL HPGCD): <10.00 µg/mL
- Quantity of Fulvestrant Diluted Run 2 (0 mg/mL HPGCD): <10.00 µg/mL
- True Fulvestrant Concentration (0 mg/mL MBCD in ddH2O): <0.010 mg/mL
- Average Concentration (0 mg/mL MBCD): <10.00 µg/mL
- Quantity of Fulvestrant Diluted Run 1 (0 mg/mL MBCD): <10.00 µg/mL
- Quantity of Fulvestrant Diluted Run 2 (0 mg/mL MBCD): <10.00 µg/mL
- Average Concentration (0 mg/mL SBEBCD): <10.00 µg/mL
- Quantity of Fulvestrant Diluted Run 1 (0 mg/mL SBEBCD): <10.00 µg/mL
- Quantity of Fulvestrant Diluted Run 2 (0 mg/mL SBEBCD): <10.00 µg/mL
- True Fulvestrant Concentration (5 mg/mL BCD in ddH2O): <0.010 mg/mL
- Average Concentration (5 mg/mL BCD): <10.00 µg/mL
- Quantity of Fulvestrant Diluted Run 1 (5 mg/mL BCD): <10.000 µg/mL
- Quantity of Fulvestrant Diluted Run 2 (5 mg/mL BCD): <10.000 µg/mL
- True Fulvestrant Concentration (10 mg/mL BCD in ddH2O): <0.010 mg/mL
- Average Concentration (10 mg/mL BCD): <10.00 µg/mL
- Quantity of Fulvestrant Diluted Run 1 (10 mg/mL BCD): <10.000 µg/mL
- Quantity of Fulvestrant Diluted Run 2 (10 mg/mL BCD): <10.000 µg/mL
- True Fulvestrant Concentration (15 mg/mL BCD in ddH2O): 0.013 mg/mL
- Average Concentration (15 mg/mL BCD): 13.00 µg/mL
- Quantity of Fulvestrant Diluted Run 1 (15 mg/mL BCD): 13.060 µg/mL
- Quantity of Fulvestrant Diluted Run 2 (15 mg/mL BCD): 12.940 µg/mL
- True Fulvestrant Concentration (25 mg/mL ACD in ddH2O): 0.033 mg/mL
- Average Concentration (25 mg/mL ACD): 33.30 µg/mL
- Quantity of Fulvestrant Diluted Run 1 (25 mg/mL ACD): 33.620 µg/mL
- Quantity of Fulvestrant Diluted Run 2 (25 mg/mL ACD): 32.970 µg/mL
- True Fulvestrant Concentration (50 mg/mL ACD in ddH2O): 0.111 mg/mL
- Average Concentration (50 mg/mL ACD): 110.74 µg/mL
- Quantity of Fulvestrant Diluted Run 1 (50 mg/mL ACD): 110.600 µg/mL
- Quantity of Fulvestrant Diluted Run 2 (50 mg/mL ACD): 110.880 µg/mL
- True Fulvestrant Concentration (50 mg/mL GCD in ddH2O): 0.011 mg/mL
- Average Concentration (50 mg/mL GCD): 10.62 µg/mL
- Quantity of Fulvestrant Diluted Run 1 (50 mg/mL GCD): 10.700 µg/mL
- Quantity of Fulvestrant Diluted Run 2 (50 mg/mL GCD): 10.530 µg/mL
- True Fulvestrant Concentration (50 mg/mL HPBCD in ddH2O): 0.210 mg/mL
- Average Concentration (50 mg/mL HPBCD): 20.95 µg/mL
- Quantity of Fulvestrant Diluted Run 1 (50 mg/mL HPBCD): 21.09 µg/mL
- Quantity of Fulvestrant Diluted Run 2 (50 mg/mL HPBCD): 20.81 µg/mL
- True Fulvestrant Concentration (50 mg/mL HPGCD in ddH2O): 0.037 mg/mL
- Average Concentration (50 mg/mL HPGCD): 38.32 µg/mL
- Quantity of Fulvestrant Diluted Run 1 (50 mg/mL HPGCD): 38.66 µg/mL
- Quantity of Fulvestrant Diluted Run 2 (50 mg/mL HPGCD): 37.97 µg/mL
- True Fulvestrant Concentration (50 mg/mL MBCD in ddH2O): 0.750 mg/mL
- Average Concentration (50 mg/mL MBCD): 74.99 µg/mL
- Quantity of Fulvestrant Diluted Run 1 (50 mg/mL MBCD): 74.61 µg/mL
- Quantity of Fulvestrant Diluted Run 2 (50 mg/mL MBCD): 75.37 µg/mL
- True Fulvestrant Concentration (50 mg/mL SBEBCD in ddH2O): 0.077 mg/mL
- Average Concentration (50 mg/mL SBEBCD): 77.30 µg/mL
- Quantity of Fulvestrant Diluted Run 1 (50 mg/mL SBEBCD): 76.98 µg/mL
- Quantity of Fulvestrant Diluted Run 2 (50 mg/mL SBEBCD): 77.61 µg/mL
- True Fulvestrant Concentration (75 mg/mL ACD in ddH2O): 0.310 mg/mL
- Average Concentration (75 mg/mL ACD): 310.32 µg/mL
- Quantity of Fulvestrant Diluted Run 1 (75 mg/mL ACD): 310.460 µg/mL
- Quantity of Fulvestrant Diluted Run 2 (75 mg/mL ACD): 310.170 µg/mL
- True Fulvestrant Concentration (100 mg/mL ACD in ddH2O): 1.683 mg/mL
- Average Concentration (100 mg/mL ACD): 168.26 µg/mL
- Quantity of Fulvestrant Diluted Run 1 (100 mg/mL ACD): 162.660 µg/mL
- Quantity of Fulvestrant Diluted Run 2 (100 mg/mL ACD): 173.850 µg/mL
- True Fulvestrant Concentration (100 mg/mL GCD in ddH2O): <0.010 mg/mL
- Average Concentration (100 mg/mL GCD): <10.00 µg/mL
- Quantity of Fulvestrant Diluted Run 1 (100 mg/mL GCD): <10.000 µg/mL
- Quantity of Fulvestrant Diluted Run 2 (100 mg/mL GCD): <10.000 µg/mL
- True Fulvestrant Concentration (100 mg/mL HPBCD in ddH2O): 0.483 mg/mL
- Average Concentration (100 mg/mL HPBCD): 48.30 µg/mL
- Quantity of Fulvestrant Diluted Run 1 (100 mg/mL HPBCD): 48.32 µg/mL
- Quantity of Fulvestrant Diluted Run 2 (100 mg/mL HPBCD): 48.27 µg/mL
- True Fulvestrant Concentration (100 mg/mL HPGCD in ddH2O): 0.107 mg/mL
- Average Concentration (100 mg/mL HPGCD): 116.27 µg/mL
- Quantity of Fulvestrant Diluted Run 1 (100 mg/mL HPGCD): 116.80 µg/mL
- Quantity of Fulvestrant Diluted Run 2 (100 mg/mL HPGCD): 115.74 µg/mL
- True Fulvestrant Concentration (100 mg/mL MBCD in ddH2O): 3.021 mg/mL
- Average Concentration (100 mg/mL MBCD): 302.06 µg/mL
- Quantity of Fulvestrant Diluted Run 1 (100 mg/mL MBCD): 302.12 µg/mL
- Quantity of Fulvestrant Diluted Run 2 (100 mg/mL MBCD): 301.99 µg/mL
- True Fulvestrant Concentration (100 mg/mL SBEBCD in ddH2O): 0.167 mg/mL
- Average Concentration (100 mg/mL SBEBCD): 167.10 µg/mL
- Quantity of Fulvestrant Diluted Run 1 (100 mg/mL SBEBCD): 167.7 µg/mL
- Quantity of Fulvestrant Diluted Run 2 (100 mg/mL SBEBCD): 166.49 µg/mL
- True Fulvestrant Concentration (150 mg/mL GCD in ddH2O): <0.010 mg/mL
- Average Concentration (150 mg/mL GCD): <10.00 µg/mL
- Quantity of Fulvestrant Diluted Run 1 (150 mg/mL GCD): <10.000 µg/mL
- Quantity of Fulvestrant Diluted Run 2 (150 mg/mL GCD): <10.000 µg/mL
- True Fulvestrant Concentration (150 mg/mL HPBCD in ddH2O): 0.937 mg/mL
- Average Concentration (150 mg/mL HPBCD): 93.66 µg/mL
- Quantity of Fulvestrant Diluted Run 1 (150 mg/mL HPBCD): 93.82 µg/mL
Structure (SMILES): C[C@]12CC[C@@H]3c4ccc(O)cc4C[C@@H](CCCCCCCCC[S+]([O-])CCCC(F)(F)C(F)(F)F)[C@H]3[C@@H]1CC[C@@H]2O (stereo partly drawn) [Fulvestrant, 7-alpha-[9-(4,4,5,5,5-pentafluoropentylsulphinyl)nonyl]estra-1,3,5-(10)-triene-3,17-beta-diol]
